Data on five compounds can be found in US20110082133A1, “PYRIDONE COMPOUNDS” (priority 2008, published 2011).

Structures are written as SMILES.

Assay [1] concerns the target T1, rat EP4 receptor (Rattus norvegicus, UniProt P43114). Kind of assay: Evaluation test on EP4 receptor affinity in rat ([3H]PGE2 receptor binding test, membrane fraction). Further details: expressed in transfected cells; host or cells: HEK293 cells, transient transfection (Lipofectamine 2000); membrane fraction used. To be noted: [3H]PGE2 0.3 nM, membrane fraction of rat EP4 expressing HEK293 cells. As for the experimental part:
A rat EP4 receptor cDNA was subcloned into an expression vector (pcDNA3.1-V5-His-topo, manufactured by Invitrogen Corporation) to prepare a rat EP4 expression vector. HEK293 cells were cultured in a collagen type I-treated 15 cm dish (manufactured by Asahi Techno Glass Co. Ltd.) to a confluence of 70%. An Opti-MEM culture medium at 1.2 mL/dish and a transfection reagent (Lipofectamine 2000, manufactured by Invitrogen Corporation) at 60 μL/dish were mixed, followed by being left to stand at room temperature for 5 minutes. Then, the rat EP4 receptor expression vector at 15 μg/dish was added thereto, followed by being left to stand at room temperature for 30 minutes. The liquid mixture of the transfection reagent was added into the dish, followed by culturing for 20 to 24 hours. The cell culture was carried out in a CO2 incubator (37° C., 5% CO2).
The culture medium was removed by suction, 10 mL of cooled PBS was added thereto per 15 cm dish, and the cells were scraped using a cell scraper. After washed with cooled PBS (1,200 rpm, 4° C., 5 minutes), suspended in 6 mL/dish of cooled 20 mM Tris-HCl (pH 7.4; manufactured by Nacalai Tesque Inc., 5 mM EDTA included) and homogenized using a Polytron, the homogenate was centrifuged (26,000 rpm, 20 minutes, 4° C.). The obtained precipitate was resuspended in cooled 20 mM Tris-HCl and homogenized again using a Polytron, and the homogenate was centrifuged (26,000 rpm, 20 minutes, 4° C.). The obtained precipitate was resuspended in 50 mM HEPES (pH 7.5; manufactured by Dojindo Laboratories) at 1 mL per dish, homogenized using a Polytron, and freeze-stored at −80° C. as a membrane fraction. At this time, a part thereof was used for the measurement of the protein concentration. Measurement of the protein concentration was carried out using a Protein assay stain (manufactured by Bio-Rad Laboratories) in accordance with a standard Protocol as appended in duplicate.
[^3H]PGE2 50 μL (final concentration 0.3 nM; manufactured by Perkin Elmer Co., Ltd.), 100 μL (20 μg/well) of the membrane fraction prepared from the rat EP4 expression cell, and 50 μL of a test compound were mixed in a 96-well microplate (manufactured by Sumitomo Bakelite Co., Ltd.), incubated at room temperature for 1 hour, then filtered by suction on a microplate (UniFilter-96 GF/B, manufactured by Perkin Elmer Co., Ltd.) using a cell harvester (FilterMate Harvester, manufactured by Perkin Elmer Co., Ltd.), and washed three times with 300 μL/well of a cooled assay buffer (50 mM HEPES, 10 mM MgCl2). Dilution of [^3H]PGE2 and the membrane fraction was carried out using the assay buffer, and dilution of the test compound and the unlabeled PGE2 was carried out using dimethyl sulfoxide and the assay buffer. The UniFilter-96 GF/B was treated by preliminarily washing twice with 200 μL/well of the cooled assay buffer. The UniFilter-96 GF/B after filtration was dried in a dryer overnight, 50 μL/well of a liquid scintillation cocktail (MicroScint20, manufactured by Perkin Elmer Co., Ltd.) was added thereto, and the radioactivity was then measured using a liquid scintillation counter for a microplate (TopCount, manufactured by Perkin Elmer Co., Ltd.). For measurement of the non-specific binding, an unlabeled PGE2 (final concentration 1 μM; manufactured by Cayman Chemical Company) was added. All of the measurements were carried out in duplicate, and the specific binding amount was determined by subtracting the non-specific binding amount from the total binding amount.
According to the test method as described above, the rat EP4 receptor affinity (Ki) of the compound of the formula (I) was measured. […] In this connection, Ex means Example Compound number.

The test system of assay [2] is LPS-induced TNF-α production in THP-1 cells. As to the kind of experiment: Inhibitory action on LPS-induced TNF-α production in THP-1 cells. Format: cell-based. Conditions: Homo sapiens, 3 hours after LPS, ELISA. As for the experimental part:
Human monocytic cell line THP-1 cells were suspended in an assay medium (PRMI-1640 containing 10% fetal bovine serum, 100 unit/mL penicillin G sodium, and 100 μg/mL streptomycin sulfate), and seeded onto a 96-well plate at 1×10^5 cells/well. 50 μL/well of an assay medium containing a test compound was added thereto, followed by incubation at 37° C. for 30 minutes. Further, 50 μL/well of an assay medium containing 1 to 5 μg/mL of LPS was added thereto, and the TNF-α concentration in the assay medium of each well after 3 hours was measured. The measurement was carried out by means of a standard ELISA method. A 96-well plate which had been coated overnight with an anti-human TNF monoclonal antibody (clone: MAb1) (manufactured by Becton, Dickinson and Company) as a capture antibody was washed with a wash buffer (PBS containing 0.05% Tween-20), and PBS containing 10% fetal bovine serum was incubated at room temperature for 1 hour to perform blocking. After washing with a wash buffer, 100 μL/well of the assay medium to be measured was incubated at 4° C. overnight. As the standard material to be measured, a recombinant human TNF (manufactured by Becton, Dickinson and Company) was used. After washing with a wash buffer, 100 μL of a biotinylated anti-human TNF monoclonal antibody (clone: MAb11) as a detection antibody was treated at room temperature for 1 hour. After washing with a wash buffer, it was treated with 100 μL/well of an HRP-labeled Streptavidin (manufactured by Zymed Laboratories, Inc.) at room temperature for 30 minutes, and washed again. Treatment was conducted using 100 μL/well of a TMB (3,3′,5,5′-tetramethylbenzidine) substrate liquid at room temperature for 20 minutes in a dark room. A 2 M sulfuric acid was added thereto at 50 μL/well to stop the reaction, and an absorbance at 450 nm/570 nm was measured by means of a plate reader SPECRA max (manufactured by Molecular Devices Inc.).
Background: In an ELISA, binding on a coated surface is turned into a signal by an enzyme label.

Another assay concerns hindlimb blood flow. As to the kind of experiment: Hindlimb blood flow increasing action in anesthetized rat. Format: in vivo, Wistar male rats. To be noted: 2 hours after administration, solvent group set as 100%. The procedure:
Wistar male rats were used. The test compound was orally administered, and after 2 hours, the hindlimb blood was measured using a laser blood flow imaging apparatus (PIM II, manufactured by Integral Corporation). At 20 minutes before the measurement, 60 mg/kg of pentobarbital was intraperitoneally administered to conduct anesthesia.

For assay [3], the target named is T1, rat EP4 receptor. Kind of assay: EP4 receptor agonistic action in rat (cAMP increasing action in rat EP4 receptor expression CHO-K1 cells). It counts as cell-based. Also on record: expressed in transfected cells. Conditions: cAMP increasing action by 1 μM PGE2 taken as 100%. The procedure: The agonistic activity was evaluated by the cAMP increasing action in the rat EP4 receptor expression cells. The rat EP4 receptor expression vector was introduced into CHO-K1 cells (American Type Culture Collection) to prepare a rat EP4 receptor stable expression cell line. These cells were seeded onto a 96-well microplate at 2×10^4 cell/well, and used for the experiment the next day. The culture medium of each well was removed by suction, 100 μL/well of an assay culture medium (2 μM indomethacin, 0.1% bovine serum albumin-containing α-MEM) was added thereto, and incubated at 37° C. for 1 hour. The culture medium was removed again by suction, and replaced with 100 μL/well of an assay culture medium comprising a test compound and 1 mM IBMX (3-isobutyl-1-methylxanthine). After incubating at 37° C. for 30 minutes, the culture medium was removed by suction, 100 μL/well of a cell lysate (0.2% Triton-X100-containing phosphate buffer physiological saline) was put thereinto, and the plate was shaken for 10 minutes. Using a cAMP femto 2 kit (manufactured by Cis Bio International), the cAMP concentration in the cell lysate was measured. Further, the cAMP increasing action (%) was calculated with the cAMP increasing action by 1 μM PGE2 was taken as 100%.

T1 sequence (P43114 whole entry): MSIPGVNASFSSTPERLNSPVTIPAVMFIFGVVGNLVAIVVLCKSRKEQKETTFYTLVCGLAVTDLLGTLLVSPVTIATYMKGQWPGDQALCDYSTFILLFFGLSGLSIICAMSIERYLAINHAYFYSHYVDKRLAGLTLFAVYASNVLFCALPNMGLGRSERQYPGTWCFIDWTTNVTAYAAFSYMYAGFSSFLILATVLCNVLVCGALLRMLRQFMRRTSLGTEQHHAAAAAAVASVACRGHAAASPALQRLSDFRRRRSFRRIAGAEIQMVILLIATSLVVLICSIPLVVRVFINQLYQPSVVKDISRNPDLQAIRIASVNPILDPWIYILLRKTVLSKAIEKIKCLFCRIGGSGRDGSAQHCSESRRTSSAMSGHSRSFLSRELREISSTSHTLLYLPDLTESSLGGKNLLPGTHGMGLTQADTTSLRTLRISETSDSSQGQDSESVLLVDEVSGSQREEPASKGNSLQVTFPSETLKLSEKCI

Compound `CN(Cc1c(Cl)cc(Cl)c(=O)n1CCc1ccc(C(=O)O)cc1)c1cccc(C(F)(F)F)c1` [Example 159] registered a Ki on rat EP4 receptor [1] of 3.3 nM. Besides, 2.7 nM corresponded to half-maximal inhibition in assay [2] (IC50). For the same compound, in the assay with hindlimb blood flow (dose 0.1 mg/kg oral), the “Blood flow relative to the group administered with the solvent” value was found to be 122%.
In the case of `CCOc1ccc2c(c1)N(Cc1c(Cl)cc(Cl)c(=O)n1CCc1ccc(C(=O)O)cc1)CC2` [Example 10, 4-(2-{3,5-dichloro-6-[(6-ethoxy-2,3-dihydro-1H-indol-1-yl)methyl]-2-oxopyridin-1(2H)-yl}ethyl)benzoic acid], the Ki on rat EP4 receptor [1] came to 3.2 nM. Besides, the “Blood flow relative to the group administered with the solvent” value in the assay with hindlimb blood flow (dose 0.3 mg/kg oral) is reported as 124%.
Turning to `CCc1cccc(N(C)Cc2c(Cl)cc(Cl)c(=O)n2CCc2ccc(C(=O)O)cc2)c1` [Example 106], affinity at rat EP4 receptor [1] was put at a Ki of 28 nM. In the assay on hindlimb blood flow (dose 0.3 mg/kg oral), the “Blood flow relative to the group administered with the solvent” value came to 126%.
Regarding `CCC[C@H]1CCCN1Cc1c(Br)ccc(=O)n1CCc1ccc(C(=O)O)cc1` [Example 207], in the assay on hindlimb blood flow (dose 1 mg/kg oral), the “Blood flow relative to the group administered with the solvent” value came out at 140%.
At rat EP4 receptor [1], `CCC[C@H]1CCCN1Cc1c(Cl)cc(Cl)c(=O)n1CCc1ccc(-c2n[nH]c(=O)o2)cc1` [Example 208] gave a Ki of 2.9 nM. For the same compound, at rat EP4 receptor [3], the “cAMP increasing action (%) at 10 μM” value is 83%.

As a reminder, the Ki is a measure of affinity in units of concentration, obtained from inhibition or displacement. Higher therefore signals lower affinity. One may read the IC50 as the point on the concentration scale where inhibition reaches its midpoint. Low readings indicate greater potency, high ones weaker potency.
